Test results as given in article PMC3314994, “Inhibitors of human histone deacetylase with potent activity against the African trypanosome Trypanosoma brucei” (Bioorganic & Medicinal Chemistry Letters, 2012).

How the values were obtained:
Trypanosoma brucei (BSF) = assay: Growth inhibition of cultured bloodstream form T. brucei; type: cell-based, Trypanosoma brucei (strain 427); conditions: Trypanosoma brucei, cultured bloodstream form, strain 427, triplicate; for IC50: read-out: Trypanosoma brucei (BSF) IC50 ± SD; for IC90: read-out: Trypanosoma brucei (BSF) IC90 ± SD
Experimental: Treatment of parasites with micromolar levels of these inhibitors could result in cell death within 4 h (Fig. 1).
[30] Growth inhibitory properties against cultured bloodstream form T. brucei were determined as described previously.[29] Experiments were performed in triplicate and data are presented as ±SD.

HDAC (FDL_HELA) = assay: Histone deacetylase activity in HeLa cell lysates (fluorescent assay kit); type: biochemical, Human; conditions: lysed HeLa cells; read-out: HDAC (FDL_HELA) IC50 ± SD
Experimental: (§1) The compounds from the different structural subclasses were all active as HDAC inhibitors, measured in an assay of enzymes in HeLa cell lysates.[23,24] HeLa cells express multiple HDACs, including HDAC 1, 2, 3, 4, and 8.[25–27] […] To further characterise the compounds with respect to HDAC selectivity, we determined their inhibitory properties against recombinant expressed human HDACs (rhHDAC 1–4, 6–9).[28]
[24] Histone deacetylase activity was determined in lysed Human cervix epithelial cancer HeLa cells. To determine the IC50 of test compound a commercially available fluorescent assay kit was used employing an acetylated enzyme substrate.[23]

rhHDAC 2 = rhHDAC 2 (Homo sapiens, UniProt Q92769); assay: Inhibition of recombinant human HDAC isoforms; type: biochemical; conditions: mean ± SD, triplicate per plate, min two plates; read-out: ED50 rhHDAC 2
Source text: as §1

rhHDAC 3 = rhHDAC 3 (Homo sapiens, UniProt O15379); assay: Inhibition of recombinant human HDAC isoforms; type: biochemical; conditions: mean ± SD, triplicate per plate, min two plates; read-out: ED50 rhHDAC 3
Source text: as §1

rhHDAC 6 = target: T1, rhHDAC 6 (Homo sapiens, UniProt Q9UBN7); assay: Inhibition of recombinant human HDAC isoforms; type: biochemical; conditions: mean ± SD, triplicate per plate, min two plates; read-out: ED50 rhHDAC 6
T1 sequence (Q9UBN7 1-1215): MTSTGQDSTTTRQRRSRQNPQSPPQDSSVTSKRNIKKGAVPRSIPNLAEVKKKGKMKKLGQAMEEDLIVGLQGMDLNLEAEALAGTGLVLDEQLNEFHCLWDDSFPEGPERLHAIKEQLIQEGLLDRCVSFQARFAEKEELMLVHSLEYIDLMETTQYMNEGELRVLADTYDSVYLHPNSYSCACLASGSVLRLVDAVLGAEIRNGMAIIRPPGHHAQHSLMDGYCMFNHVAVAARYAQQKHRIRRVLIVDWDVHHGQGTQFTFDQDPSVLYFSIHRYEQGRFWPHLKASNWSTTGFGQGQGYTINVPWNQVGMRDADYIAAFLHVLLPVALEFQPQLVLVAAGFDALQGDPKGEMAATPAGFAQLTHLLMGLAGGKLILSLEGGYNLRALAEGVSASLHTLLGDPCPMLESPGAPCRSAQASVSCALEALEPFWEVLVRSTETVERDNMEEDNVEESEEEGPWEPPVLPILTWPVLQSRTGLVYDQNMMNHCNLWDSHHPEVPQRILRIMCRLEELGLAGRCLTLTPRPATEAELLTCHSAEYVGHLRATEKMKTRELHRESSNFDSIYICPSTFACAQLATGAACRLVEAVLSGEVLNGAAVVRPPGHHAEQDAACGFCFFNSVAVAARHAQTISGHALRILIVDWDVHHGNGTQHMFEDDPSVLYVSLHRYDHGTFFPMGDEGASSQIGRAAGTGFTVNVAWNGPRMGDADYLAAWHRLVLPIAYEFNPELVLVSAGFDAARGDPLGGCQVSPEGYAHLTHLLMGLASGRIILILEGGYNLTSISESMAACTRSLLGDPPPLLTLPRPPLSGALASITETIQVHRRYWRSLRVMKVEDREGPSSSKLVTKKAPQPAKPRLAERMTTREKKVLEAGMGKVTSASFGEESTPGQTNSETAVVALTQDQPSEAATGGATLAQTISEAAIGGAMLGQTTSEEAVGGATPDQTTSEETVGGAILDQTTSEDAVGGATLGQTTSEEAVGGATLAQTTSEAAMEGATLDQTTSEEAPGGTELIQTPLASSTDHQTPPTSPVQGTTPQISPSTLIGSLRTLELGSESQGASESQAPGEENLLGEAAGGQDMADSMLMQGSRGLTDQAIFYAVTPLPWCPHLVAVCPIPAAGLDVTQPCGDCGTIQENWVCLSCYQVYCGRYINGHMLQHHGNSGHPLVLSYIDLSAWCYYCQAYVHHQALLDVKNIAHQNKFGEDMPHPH
Source text: as §1

rhHDAC 7 = target: T2, rhHDAC 7 (Homo sapiens, UniProt Q8WUI4); assay: Inhibition of recombinant human HDAC isoforms; type: biochemical; conditions: mean ± SD, triplicate per plate, min two plates; read-out: ED50 rhHDAC 7
T2 sequence (Q8WUI4 1-952): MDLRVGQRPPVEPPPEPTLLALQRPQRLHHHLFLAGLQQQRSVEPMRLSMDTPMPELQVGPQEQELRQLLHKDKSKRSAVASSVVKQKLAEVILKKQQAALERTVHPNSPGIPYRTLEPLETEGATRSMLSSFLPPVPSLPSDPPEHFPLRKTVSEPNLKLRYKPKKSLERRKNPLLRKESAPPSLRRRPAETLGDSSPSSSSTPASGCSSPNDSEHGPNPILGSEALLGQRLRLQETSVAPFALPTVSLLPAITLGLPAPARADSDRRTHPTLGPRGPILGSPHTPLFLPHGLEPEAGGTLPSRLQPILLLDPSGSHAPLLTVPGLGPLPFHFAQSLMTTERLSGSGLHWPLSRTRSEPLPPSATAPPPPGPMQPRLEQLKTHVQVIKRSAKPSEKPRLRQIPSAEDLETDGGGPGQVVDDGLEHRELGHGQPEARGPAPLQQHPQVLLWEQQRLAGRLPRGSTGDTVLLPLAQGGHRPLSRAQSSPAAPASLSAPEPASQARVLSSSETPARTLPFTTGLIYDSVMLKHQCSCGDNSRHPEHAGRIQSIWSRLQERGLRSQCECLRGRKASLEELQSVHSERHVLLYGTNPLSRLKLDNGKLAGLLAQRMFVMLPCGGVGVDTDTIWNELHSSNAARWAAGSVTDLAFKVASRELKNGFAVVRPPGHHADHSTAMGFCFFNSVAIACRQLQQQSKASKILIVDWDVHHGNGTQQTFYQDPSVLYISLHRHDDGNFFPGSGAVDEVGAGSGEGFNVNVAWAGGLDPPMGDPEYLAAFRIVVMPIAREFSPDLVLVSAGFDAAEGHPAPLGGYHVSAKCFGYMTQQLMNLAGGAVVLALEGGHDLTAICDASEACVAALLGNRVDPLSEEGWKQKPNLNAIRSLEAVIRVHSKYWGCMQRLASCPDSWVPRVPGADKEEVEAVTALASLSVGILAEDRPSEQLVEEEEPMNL
Source text: as §1

rhHDAC 8 = target: T3, rhHDAC 8 (Homo sapiens, UniProt Q9BY41); assay: Inhibition of recombinant human HDAC isoforms; type: biochemical; conditions: mean ± SD, triplicate per plate, min two plates; read-out: ED50 rhHDAC 8
T3 sequence (Q9BY41 1-377): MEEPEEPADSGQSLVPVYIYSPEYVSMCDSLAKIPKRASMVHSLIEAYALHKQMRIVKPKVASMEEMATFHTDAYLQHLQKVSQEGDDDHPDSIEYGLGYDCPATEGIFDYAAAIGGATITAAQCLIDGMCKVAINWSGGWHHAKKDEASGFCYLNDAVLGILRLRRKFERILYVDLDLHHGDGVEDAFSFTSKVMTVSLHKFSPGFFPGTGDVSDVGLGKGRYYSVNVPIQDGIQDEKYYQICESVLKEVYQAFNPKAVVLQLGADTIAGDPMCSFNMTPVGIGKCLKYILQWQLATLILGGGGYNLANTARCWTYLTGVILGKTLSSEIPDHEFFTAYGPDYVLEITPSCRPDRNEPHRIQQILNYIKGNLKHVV
Source text: as §1

rhHDAC 9 = rhHDAC 9 (Homo sapiens, UniProt Q9UKV0); assay: Inhibition of recombinant human HDAC isoforms; type: biochemical; conditions: mean ± SD, triplicate per plate, min two plates; read-out: ED50 rhHDAC 9
Source text: as §1

rhHDAC 1 = rhHDAC 1 (Homo sapiens, UniProt Q13547); assay: Inhibition of recombinant human HDAC isoforms; type: biochemical; conditions: mean ± SD, triplicate per plate, min two plates; read-out: ED50 rhHDAC 1
Source text: as §1

rhHDAC 4 = rhHDAC 4 (Homo sapiens, UniProt P56524); assay: Inhibition of recombinant human HDAC isoforms; type: biochemical; conditions: mean ± SD, triplicate per plate, min two plates; read-out: ED50 rhHDAC 4
Source text: as §1

Sequence of rhHDAC 3 (O15379 whole entry, canonical isoform): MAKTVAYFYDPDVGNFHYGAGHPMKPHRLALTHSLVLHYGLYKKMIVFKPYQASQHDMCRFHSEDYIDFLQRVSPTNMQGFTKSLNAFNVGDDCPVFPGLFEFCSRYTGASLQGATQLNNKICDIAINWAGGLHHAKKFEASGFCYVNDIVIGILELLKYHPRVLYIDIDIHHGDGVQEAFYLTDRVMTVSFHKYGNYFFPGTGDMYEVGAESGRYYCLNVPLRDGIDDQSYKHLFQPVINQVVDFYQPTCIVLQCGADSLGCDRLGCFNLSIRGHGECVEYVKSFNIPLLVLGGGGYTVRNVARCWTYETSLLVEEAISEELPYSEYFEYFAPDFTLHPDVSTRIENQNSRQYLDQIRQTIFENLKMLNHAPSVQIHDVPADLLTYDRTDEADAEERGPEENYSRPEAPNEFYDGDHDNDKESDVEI
Sequence of rhHDAC 3 (Q9Y618 395-489 partner limits assumed): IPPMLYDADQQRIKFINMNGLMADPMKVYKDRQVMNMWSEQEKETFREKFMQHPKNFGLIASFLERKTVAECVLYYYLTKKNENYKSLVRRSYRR
Sequence of rhHDAC 9 (Q9UKV0 whole entry, canonical isoform): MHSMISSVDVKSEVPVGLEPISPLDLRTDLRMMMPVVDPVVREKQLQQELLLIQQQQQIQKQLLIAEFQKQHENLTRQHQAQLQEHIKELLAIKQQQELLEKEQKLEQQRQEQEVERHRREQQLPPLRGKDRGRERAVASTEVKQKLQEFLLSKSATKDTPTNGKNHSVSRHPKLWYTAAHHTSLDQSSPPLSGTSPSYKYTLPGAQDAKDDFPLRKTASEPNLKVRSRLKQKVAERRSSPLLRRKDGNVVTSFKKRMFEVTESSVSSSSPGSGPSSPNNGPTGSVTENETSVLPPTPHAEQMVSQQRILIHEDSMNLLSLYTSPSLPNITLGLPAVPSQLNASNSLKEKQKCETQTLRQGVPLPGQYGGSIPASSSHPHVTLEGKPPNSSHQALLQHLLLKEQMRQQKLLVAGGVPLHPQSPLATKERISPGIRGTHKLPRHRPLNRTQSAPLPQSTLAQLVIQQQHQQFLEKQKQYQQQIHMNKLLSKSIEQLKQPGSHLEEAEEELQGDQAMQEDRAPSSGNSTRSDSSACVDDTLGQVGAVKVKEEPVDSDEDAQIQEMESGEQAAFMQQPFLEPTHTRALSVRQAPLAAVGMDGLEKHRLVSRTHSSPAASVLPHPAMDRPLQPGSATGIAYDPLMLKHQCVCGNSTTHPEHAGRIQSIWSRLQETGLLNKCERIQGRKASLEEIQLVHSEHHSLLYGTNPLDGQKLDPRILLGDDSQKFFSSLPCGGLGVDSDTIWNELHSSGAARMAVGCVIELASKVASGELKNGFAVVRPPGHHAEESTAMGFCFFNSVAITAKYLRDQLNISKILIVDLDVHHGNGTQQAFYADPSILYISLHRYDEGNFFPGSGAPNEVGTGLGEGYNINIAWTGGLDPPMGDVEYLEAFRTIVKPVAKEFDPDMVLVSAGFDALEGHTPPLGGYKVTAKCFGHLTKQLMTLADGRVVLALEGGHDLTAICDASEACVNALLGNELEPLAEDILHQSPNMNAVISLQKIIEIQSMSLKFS
Sequence of rhHDAC 2 (Q92769 whole entry, canonical isoform): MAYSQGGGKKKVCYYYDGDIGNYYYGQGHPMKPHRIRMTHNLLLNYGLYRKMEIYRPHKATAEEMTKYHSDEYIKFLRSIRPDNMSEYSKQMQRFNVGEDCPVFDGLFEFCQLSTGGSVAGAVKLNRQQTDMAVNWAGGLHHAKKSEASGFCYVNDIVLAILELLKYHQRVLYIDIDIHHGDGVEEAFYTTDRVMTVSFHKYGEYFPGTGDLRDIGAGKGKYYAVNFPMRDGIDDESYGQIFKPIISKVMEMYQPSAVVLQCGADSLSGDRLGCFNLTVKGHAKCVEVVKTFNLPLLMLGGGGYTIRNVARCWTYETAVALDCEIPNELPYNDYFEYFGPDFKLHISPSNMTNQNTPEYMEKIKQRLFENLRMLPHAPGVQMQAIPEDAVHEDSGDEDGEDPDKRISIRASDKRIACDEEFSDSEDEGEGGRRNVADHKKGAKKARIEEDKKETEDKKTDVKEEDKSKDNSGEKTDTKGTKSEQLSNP
Sequence of rhHDAC 4 (P56524 whole entry, canonical isoform): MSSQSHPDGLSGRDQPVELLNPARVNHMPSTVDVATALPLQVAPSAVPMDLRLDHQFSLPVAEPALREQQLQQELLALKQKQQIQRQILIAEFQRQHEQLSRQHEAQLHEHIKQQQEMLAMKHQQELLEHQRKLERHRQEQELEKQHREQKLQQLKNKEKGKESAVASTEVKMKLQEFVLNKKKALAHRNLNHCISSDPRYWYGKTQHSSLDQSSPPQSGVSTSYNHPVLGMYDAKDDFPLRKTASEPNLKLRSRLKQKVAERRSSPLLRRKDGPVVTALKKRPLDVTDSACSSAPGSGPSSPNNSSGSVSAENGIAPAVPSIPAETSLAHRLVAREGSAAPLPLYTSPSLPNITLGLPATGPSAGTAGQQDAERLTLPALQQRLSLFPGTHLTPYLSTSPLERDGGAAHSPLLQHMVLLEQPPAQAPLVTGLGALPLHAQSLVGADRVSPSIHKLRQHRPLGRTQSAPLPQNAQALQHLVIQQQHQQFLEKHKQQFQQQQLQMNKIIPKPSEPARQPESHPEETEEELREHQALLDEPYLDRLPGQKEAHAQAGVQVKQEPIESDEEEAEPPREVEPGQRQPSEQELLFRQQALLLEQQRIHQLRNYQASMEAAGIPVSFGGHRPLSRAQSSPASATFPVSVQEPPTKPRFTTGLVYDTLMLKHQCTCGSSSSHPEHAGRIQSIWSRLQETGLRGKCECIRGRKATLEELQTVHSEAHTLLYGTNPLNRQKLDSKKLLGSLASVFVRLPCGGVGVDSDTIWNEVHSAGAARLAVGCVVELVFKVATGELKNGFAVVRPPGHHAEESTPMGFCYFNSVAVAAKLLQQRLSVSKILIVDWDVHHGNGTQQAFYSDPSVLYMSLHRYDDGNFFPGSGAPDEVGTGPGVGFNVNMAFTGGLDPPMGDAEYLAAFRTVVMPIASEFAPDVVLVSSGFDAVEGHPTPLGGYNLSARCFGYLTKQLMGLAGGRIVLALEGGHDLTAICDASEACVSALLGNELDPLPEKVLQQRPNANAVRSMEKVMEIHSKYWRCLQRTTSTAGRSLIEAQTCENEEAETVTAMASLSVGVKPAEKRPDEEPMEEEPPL
Sequence of rhHDAC 1 (Q13547 whole entry, canonical isoform): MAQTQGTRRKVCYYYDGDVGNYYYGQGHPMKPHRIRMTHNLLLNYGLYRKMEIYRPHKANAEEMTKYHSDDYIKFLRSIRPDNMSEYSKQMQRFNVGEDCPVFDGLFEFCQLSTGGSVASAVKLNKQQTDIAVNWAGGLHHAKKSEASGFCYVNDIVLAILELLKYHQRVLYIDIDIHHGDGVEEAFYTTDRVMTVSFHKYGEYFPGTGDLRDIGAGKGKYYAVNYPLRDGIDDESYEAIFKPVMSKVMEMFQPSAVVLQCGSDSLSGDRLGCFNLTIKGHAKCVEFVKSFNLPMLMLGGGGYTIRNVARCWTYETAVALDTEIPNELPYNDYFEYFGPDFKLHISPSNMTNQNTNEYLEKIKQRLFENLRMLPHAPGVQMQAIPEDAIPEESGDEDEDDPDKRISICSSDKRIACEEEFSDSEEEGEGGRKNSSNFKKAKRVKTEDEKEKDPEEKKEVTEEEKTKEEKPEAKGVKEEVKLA

For `O=C(/C=C/c1cccc(S(=O)(=O)N2CCN(c3ncccn3)CC2)c1)NO` [Compound 1], the IC50 (Trypanosoma brucei (BSF)) was 0.034 ± 0.002 µM, the IC90 (Trypanosoma brucei (BSF)) was 0.066 ± 0.004 µM and the IC50 (HDAC (FDL_HELA)) was 0.084 ± 0.053 µM.

`O=C(/C=C/c1cccc(S(=O)(=O)N2CCN(c3ccc(Cl)cc3)CC2)c1)NO` [Compound 2] showed an IC50 (Trypanosoma brucei (BSF)) of 0.064 ± 0.005 µM, an IC90 (Trypanosoma brucei (BSF)) of 0.13 ± 0.005 µM and an IC50 (HDAC (FDL_HELA)) of 0.149 ± 0.006 µM.

Work on `O=C(/C=C/c1cccc(S(=O)(=O)N2CCN(c3ccccn3)CC2)c1)NO` [Compound 3] yielded an IC50 (Trypanosoma brucei (BSF)) of 0.086 ± 0.009 µM, an IC90 (Trypanosoma brucei (BSF)) of 0.201 ± 0.005 µM and an IC50 (HDAC (FDL_HELA)) of 0.123 ± 0.076 µM. The IC50 (rhHDAC 2) was 0.055 ± 0.006 µM, the IC50 (rhHDAC 3) was 0.0028 ± 0.0004 µM and the IC50 (rhHDAC 6) was 0.179 ± 0.115 µM. For the same compound, the IC50 (rhHDAC 7) was 0.1 ± 0.097 µM, the IC50 (rhHDAC 8) was 0.581 ± 0.334 µM and the IC50 (rhHDAC 9) was 0.086 ± 0.061 µM.

Work on `O=C(/C=C/c1cccc(S(=O)(=O)N2CCN(c3cccc(Cl)c3)CC2)c1)NO` [Compound 4] yielded an IC50 (Trypanosoma brucei (BSF)) of 0.123 ± 0.006 µM, an IC90 (Trypanosoma brucei (BSF)) of 0.169 ± 0.008 µM and an IC50 (HDAC (FDL_HELA)) of 0.187 ± 0.082 µM.

For `O=C(/C=C/c1cccc(S(=O)(=O)Nc2ccc(OC(F)(F)F)cc2)c1)NO` [Compound 5], the IC50 (Trypanosoma brucei (BSF)) was 0.137 ± 0.007 µM and the IC90 (Trypanosoma brucei (BSF)) was 0.22 ± 0.007 µM.

In the case of `O=C(/C=C/c1cccc(S(=O)(=O)N2CCN(c3ccccc3F)CC2)c1)NO` [Compound 6], the IC50 (Trypanosoma brucei (BSF)) is reported as 0.141 ± 0.009 µM, the IC90 (Trypanosoma brucei (BSF)) is reported as 0.224 ± 0.014 µM and the IC50 (HDAC (FDL_HELA)) is reported as 0.191 ± 0.036 µM.

`O=C(/C=C/c1cccc(S(=O)(=O)N2CCN(c3ccccc3Cl)CC2)c1)NO` [Compound 7] was tested, and the IC50 (Trypanosoma brucei (BSF)) was 0.154 ± 0.013 µM, the IC90 (Trypanosoma brucei (BSF)) was 0.281 ± 0.019 µM and the IC50 (HDAC (FDL_HELA)) was 0.068 ± 0.036 µM.

`O=C(/C=C/c1cccc(S(=O)(=O)Nc2ccc(OC(F)F)cc2)c1)NO` [Compound 8] gave an IC50 (Trypanosoma brucei (BSF)) of 0.154 ± 0.013 µM, an IC90 (Trypanosoma brucei (BSF)) of 0.306 ± 0.061 µM and an IC50 (HDAC (FDL_HELA)) of 0.01 ± 0.002 µM.

Compound `COc1ccc2nc(/C=C/C(=O)NO)ccc2c1` [Compound 9] has an IC50 (Trypanosoma brucei (BSF)) of 0.155 ± 0.018 µM, an IC90 (Trypanosoma brucei (BSF)) of 0.31 ± 0.04 µM and an IC50 (HDAC (FDL_HELA)) of 0.028 ± 0.004 µM.

Compound `COc1ccc(N2CCN(S(=O)(=O)c3cccc(/C=C/C(=O)NO)c3)CC2)cc1` [Compound 10] has an IC50 (Trypanosoma brucei (BSF)) of 0.156 ± 0.003 µM, an IC90 (Trypanosoma brucei (BSF)) of 0.224 ± 0.003 µM and an IC50 (HDAC (FDL_HELA)) of 0.212 ± 0.112 µM. It also gave an IC50 (rhHDAC 1) of 0.076 ± 0.006 µM, an IC50 (rhHDAC 2) of 0.036 ± 0.0007 µM and an IC50 (rhHDAC 3) of 0.295 ± 0.29 µM. For the same compound, the IC50 (rhHDAC 4) was 0.87 µM, the IC50 (rhHDAC 6) was 0.107 ± 0.013 µM and the IC50 (rhHDAC 8) was 0.955 ± 0.166 µM. The IC50 (rhHDAC 9) was 1.18 µM.

Compound `O=C(/C=C/c1cccc(S(=O)(=O)N2CCN(c3ccccc3)CC2)c1)NO` [Compound 11] has an IC50 (Trypanosoma brucei (BSF)) of 0.167 ± 0.012 µM, an IC90 (Trypanosoma brucei (BSF)) of 0.228 ± 0.002 µM and an IC50 (HDAC (FDL_HELA)) of 0.132 ± 0.103 µM.
